Legend:
HIV-1/MN = test: Anti HIV activity, P24 antigen in infected PM-1 cells; type: cell-based; settings: Concentration 1 μM; PM-1 cells infected with HIV-1/MN, 96 h; P24 antigen corrected by MTT
Experimental: Human CD4+T cell line PM-1 used in the assay was cultured in RPMI-1640 medium containing 10% Fetal bovine serum, 2 g/L sodium bicarbonate, 100,000 units/L Penicillin-G and 100 mg/L streptomycin. Healthy PM-1 cells were plated on the first day in a 96 well plate at […]. After 24 h HIV-1/MN was added to the culture and incubated for 2 h for infection. Cells were washed twice with PBS to remove the virus in the culture. Different concentrations of DRF compounds ranging from 10^−4 to 10^−8M were added to the culture and incubated for 96 h. The viability of cells was then assessed by standard MTT assay and the viral antigen P24 levels were estimated by ELSA method. Based on the MTT assay values the P 24 antigen values were corrected. All the samples were tested in triplicates and the average was used for calculations. AZT was used as standard compound for comparision.

KB = KB cells; cited from earlier work
[1] = test system: P388 lymphocytic leukemia; settings: P388 cells; cited from earlier work
Human lymphocytes = test: Lymphocyte proliferation, tritiated thymidine incorporation; type: cell-based; settings: Concentration 1 μM; human lymphocytes with Phytohemagglutitin A
Experimental: Human lymphocytes were isolated from whole blood by using Ficoll Hypaque Plus (Amersham). On day one, 1 million lymphocytes were seeded into each well of 96 well plate in 100 μL volume of RPMI 1640 medium containing 10% FCS and Phytohemagglutitin A at 1 μg/well concentration. Plates were incubated at 37° C. in CO2 incubator for 24 h. Test compounds at various concentrations were added to test wells and only medium with vehicle was added to control wells. After 48 h of incubation […] of tritiated thymidine was added to each well. After 24 h of thymidine addition the cells were harvested and the incorporated radioactivity was determined. Stimulation Index (SI) was calculated using the formula, [formula]
A^T=Average CPM of treated wells,
A^C=Average CPM of control wells.

SW-620 = test: in vitro anti-cancer screen, Sulforhodamine B method; type: cell-based, human; settings: COLON: SW-620; 48 h incubation; read-out: GROWTH INHIBITION (GI 50)
Experimental: (§1) Each test compound was screened against a battery of cell lines representing eight different types of cancers. In a typical procedure, 1×10^4 cells were seeded into each well of 96 well plate in 100 μL volume of RPMI 1640 medium containing antibiotics and 10% FCS.
(§2) The plates were incubated at 37° C. in presence of CO2. After 24 h, test compounds were evaluated at five 10 fold dilutions ranging from 100 to 0.01 μM. To each test well 100 μL of test compound solution was added and medium with vehicle was added to control wells and the plates were further incubated. After 48 h of incubation, plates were terminated by Sulforhodamine B method.
(§3) The optical density which is proportional to protein mass, is then-read by automated spectrophotometric plate reader at a wavelength of 515 nm.

DU145 = test: as above; type: cell-based, human; settings: PROSTATE: DU145; 48 h incubation; read-out: GROWTH INHIBITION (GI 50)
Experimental: as §1, §2, §3

SKOV-3 = test: as above; type: cell-based, human; settings: OVARIAN: SKOV-3; 48 h incubation; read-out: GROWTH INHIBITION (GI 50)
Experimental: as §1, §2, §3

H522 = test: as above; type: cell-based, human; settings: LUNG: H522; 48 h incubation; read-out: GROWTH INHIBITION (GI 50)
Experimental: as §1, §2, §3

MCF-7/ADR = test: as above; type: cell-based, human; settings: BREAST: MCF-7/ADR; 48 h incubation; read-out: GROWTH INHIBITION (GI 50)
Experimental: as §1, §2, §3

M14 = test: as above; type: cell-based, human; settings: MELANOMA: M14; 48 h incubation; read-out: GROWTH INHIBITION (GI 50)
Experimental: as §1, §2, §3

U251 = test: as above; type: cell-based, human; settings: CNS: U251; 48 h incubation; read-out: GROWTH INHIBITION (GI 50)
Experimental: as §1, §2, §3

A498 = test: as above; type: cell-based, human; settings: RENAL: A498; 48 h incubation; read-out: GROWTH INHIBITION (GI 50)
Experimental: as §1, §2, §3

HIV-1(IIIB) = settings: cited from earlier work

With `Cc1cn([C@H]2C[C@H](N=[N+]=[N-])[C@@H](CO)O2)c(=O)[nH]c1=O` [AZT, reference compound] the “Percentage Inhibition” value (HIV-1/MN) was 72.47.

For `C=C1CC[C@@H]2[C@](C)(CO)[C@H](O)CC[C@@]2(C)[C@@H]1C/C=C1/C(=O)OC[C@H]1O` [Andrographolide], the cytotoxic activity (KB) is given as “potent cytotoxic activity” and the cytotoxic activity [1] is given as “potent cytotoxic activity”.

With `C=C1CCC2C(C)(COC(C)=O)C(OC(C)=O)CCC2(C)C1CC(NCc1ccccc1)C1=CCOC1=O` (centres unmarked) [Example 1, 3,19-Diacetyl-12-(N-benzylamino)-14-deoxy andrographolide] the “Percentage Inhibition” value (HIV-1/MN) was 73.94, the “Stimulation Index (SI)” value (Human lymphocytes) was 123 and the GI50 (SW-620) was 4 µM. The GI50 (DU145) was 7 µM, the GI50 (SKOV-3) was 0.3 µM and the GI50 (H522) was 9 µM. The GI50 (MCF-7/ADR) was 8 µM, the GI50 (M14) was 5 µM and the GI50 (U251) was 0.2 µM. It also gave a GI50 (A498) of 5 µM.

For “dehydroandrographolide succinic acid monoester [DASM]”, the “minimal concentration inhibitory to HIV-1(IIIB)” value (HIV-1(IIIB)) is given as 1.6 to 3.1 µg/mL.

Reference: patent publication US6576662B2, “Compounds having anticancer activity : process for their preparation and pharmaceutical compositions containing them” (Dr. Reddy's Laboratories Limited, priority 2000, dated 2003)
